Experiments:
HepG2 cells [1] = assay: Morphologic observation by light microscope; type: cell-based, human; settings: HepG2, cisplatin 20 µM, 24 h
Procedure: Morphological observations can directly reflect the effects of drugs on cells. HepG2 cells were cultured with increasing concentrations of compound r (0, 5, 15 and 45 µM) for 24 h and observed using a light microscope. The cell morphology was clearly altered with the increase in drug concentration (figure 2).
Figure 2. Effect of compound r on the microscopic examination of HepG2 cells. Morphology of HepG2 treated with compound r (0, 5, 15 and 45 µM) and cisplatin (20 µM) for 24 h. Light microscopy photographs, with 40× objective.
(§1) Cells were seeded in 96-well microtiter plates at a density of 1 × 10^4 cells well^−1 and incubated with different concentrations of compound (6.25, 12.50, 25.00, 50.00 to 100.00 µM), cisplatin and paclitaxel in RPMI-1640 or DMEM at 37°C with 5% CO2. After 24 h, cell morphology was observed using a light microscope, and then 20 µl of MTT solution (5 mg ml^−1) was added to the well and incubated for 4 h, then cell survival was determined by measuring the optical density (OD) absorbance at a wavelength of 570 nm using an ELISA microplate reader. The inhibition rate (IR) following each compound treatment was determined by the following equation: IR (%) = (1 − ODexp/ODcon) × 100%, where ODexp and ODcon are the OD of the treated and untreated cells, respectively. Cisplatin and paclitaxel were used as positive control drugs.

HepG2 cells [2] = assay: Cell cycle assay by flow cytometry; type: cell-based, human; settings: HepG2, 20 µM, 24 h
Procedure: To evaluate the effects of compound r on cell cycle progression of HepG2, cells were treated with compound r at different concentrations (0, 5, 15 and 45 µM) for 24 h and then examined by flow cytometry. The accumulation of cells in S phase increased with increasing concentration of compound r. Approximately 18.36 ± 1.93%, 19.39 ± 2.06%, 29.9 ± 0.87% and 34.24 ± 1.00% of cells were arrested in S phase in response to 0, 5, 15 and 45 µM compound r, respectively. In comparison, 39.56 ± 0.97% cells were arrested in S phase after treatment with 20 µM cisplatin for 24 h.
Figure 5. Cells treated with 0, 5, 15 and 45 µM compound r for 24 h were collected and analysed by flow cytometry. Images were representative of three independent experiments. Values represented the mean ± s.d.; versus blank, *p < 0.01, **p < 0.001; versus control ^#p < 0.01, ^##p < 0.001.
Cells were treated with compound r (0, 5, 15, 45 µM) or 20 µM of cisplatin as the control for 24 h. Cells were collected by centrifugation (1000 rpm, 5 min), washed with PBS and fixed with 70% ice-cold ethanol overnight at 4°C. The cell cycle was examined on a flow cytometer using a cell cycle analysis kit (Beyotime Biotechnologyin, China) in accordance with the manufacturer's instructions.

HepG2 cells [3] = assay: MTT anti-proliferation assay, HepG2; type: cell-based, human; settings: 24 h, average of three determinations
Procedure: (§2) The 22 synthesized resveratrol compounds were evaluated for anti-proliferative activities against three human cancer cell lines, including HepG2, A549 and HeLa cells, using 3-[4,5-dimethylthiazol-2-yl]-2,5 diphenyl tetrazolium bromide (MTT) assays. Paclitaxel, a well-known tubulin inhibitor, was used as a positive control. […] Therefore, the inhibitory activity of the compounds depended not only on the 2-position substitution of acrylic acid, but also on the 3-position substitution of acrylic acid.
(§3) The anti-proliferative and cytotoxicity activity was determined using MTT assay. Human cervical carcinoma HeLa cells, human hepatocellular carcinoma HepG2 cells, human lung carcinoma A549 cells were representative in the anti-proliferation assay, which were obtained from the Shanghai Institute of Cell Biology (Shanghai, China). Normal African green monkey kidney Vero cells were a gift from Dr Xiumiao He at Guangxi University for Nationalities. Normal human hepatocytes LO2 cells were a gift from Dr Xing Lin at Guangxi Medical University. The HepG2, Hela, LO2 and Vero cells were cultured in Dulbecco's modified Eagle's medium (DMEM, Gibco) and the A549 cells were cultured in RPMI1640 (Gibco), both media were supplemented with 10% fetal calf serum and antibiotics (100 IU ml^−1 penicillin, 100 IU ml^−1 streptomycin; Amresco).
as §1

A549 cells = assay: MTT anti-proliferation assay, A549; type: cell-based, human; settings: 24 h, average of three determinations
Procedure: as §2, §3, §1

HeLa cells = assay: MTT anti-proliferation assay, HeLa; type: cell-based, human; settings: 24 h, average of three determinations
Procedure: The 22 synthesized resveratrol compounds were evaluated for anti-proliferative activities against three human cancer cell lines, including HepG2, A549 and HeLa cells, using 3-[4,5-dimethylthiazol-2-yl]-2,5 diphenyl tetrazolium bromide (MTT) assays. Paclitaxel, a well-known tubulin inhibitor, was used as a positive control.
as §3
After 24 h, cell morphology was observed using a light microscope, and then 20 µl of MTT solution (5 mg ml^−1) was added to the well and incubated for 4 h, then cell survival was determined by measuring the optical density (OD) absorbance at a wavelength of 570 nm using an ELISA microplate reader. […] Cisplatin and paclitaxel were used as positive control drugs.

Vero cells = assay: MTT cytotoxicity test, Vero; type: cell-based, African green monkey; settings: 24 h, average of three determinations
Procedure: (§4) Vero cells are non-tumorigenic cell lines and are important raw materials as the research and production of biological products. Vero cells show low tumorigenicity and had been approved for use in the production of human virus vaccines. Thus, Vero cells were chosen as a control for cytotoxicity. All compounds were evaluated for their cell toxicity against Vero and normal human hepatocytes cells line (LO2) using MTT assays.
as §3, §1

[4] = tested on: normal human hepatocytes LO2 cells; assay: MTT cytotoxicity test, LO2; type: cell-based; settings: 24 h, average of three determinations
Procedure: as §4, §3, §1

Compound	cell morphology (HepG2 cells [1])	cells arrested in S phase (HepG2 cells [2]) [%]	IC50 (HepG2 cells [3]) [µM]	IC50 (A549 cells) [µM]	IC50 (HeLa cells) [µM]	CC50 (Vero cells) [µM]	CC50 [4] [µM]
N.N.[Cl][Pt][Cl] [cisplatin, reference compound]	rounded shape	39.56 ± 0.97					
3-(4-hydroxy-3-methoxy-5-nitrophenyl)-2-(4-methoxyphenyl) acrylic acid [compound s]			42 ± 4	15 ± 4	39 ± 2	> 100	83 ± 2

From publication PMC6774960, “Design, synthesis and biological evaluation of a series of new resveratrol analogues as potential anti-cancer agents” (Royal Society Open Science, 2019)
